Assay: Human HepG2 cell viability assay in 384 well format
Assay type: toxicity, cell-based
Parameters: dose 125 nL, time 70.5 hour; concentration not given beside the values
Conditions: HepG2 cells, read-out: Inhibition

SMILES	cytotoxicity at 70.5 h [%]
O=C(O)c1ccccc1-c1ccc(CN2CCCC(O)C2)cc1 (stereo unspecified)	-8.74
Cc1ncncc1C(=O)N1CCCC(Cc2nccs2)C1 (stereo unspecified)	-4.31
O=C(c1cccnc1)N1CCCC(Cc2nccs2)C1 (stereo unspecified)	-6.74
CC(=O)N1C[C@@H](c2ccsc2)[C@@H]2CN(CC3CCCCC3)CC[C@@H]21	-5.59
Cc1nc(-c2ccccc2C(=O)O)cc(C2CCN(C(C)C)C2)n1 (stereo unspecified)	10.7
O=C(NC[C@]1(O)CN(Cc2ccc(F)cc2)C[C@H]1O)c1ccccn1	-6.05
CC(=O)N1C[C@@H](c2ccsc2)[C@@H]2CN(Cc3ccccc3Cl)CC[C@@H]21	-5.99
COc1cccc(-c2noc(C3CCN(Cc4ccncc4)C3)n2)c1 (stereo unspecified)	-3.26
Cc1nccn1-c1nccnc1C1CCN(Cc2ccc(F)cc2)CC1	24.1
Cc1cnc(Nc2nccnc2C2CCN(C)CC2)s1	-19.6
CN1CCc2nc(C3CCN(C(=O)CCC4CCCC4)CC3)ncc2C1	-16.6
CC(=O)Nc1nc(C2CCN(C(C)=O)CC2)cs1	-22
CC(=O)N1CCCC(c2ccc(Nc3nc(C)cc(C)n3)cn2)C1 (stereo unspecified)	-12
O=C(c1cccc(F)c1)N1CCOC(c2nc(-c3ncccn3)no2)C1 (stereo unspecified)	-5.4
Cc1cc(-c2cnc(NCc3cccnc3)nc2C(C)C)on1	-25.7
Cc1cc(-c2cnc(NCc3cccnc3)nc2C(C)(C)C)on1	-18.2
Cc1n[nH]c(C)c1-c1cnc(CC2CCN(C)C2)cn1 (stereo unspecified)	-17.7
Cn1nccc1C(=O)N1CCOC(Cc2cccnc2)C1 (stereo unspecified)	16
COCC1CCN(c2cc(C3CN(C)CCO3)nc(C)n2)CC1 (stereo unspecified)	0.671
CC(=O)N1CCCC1c1nccnc1Nc1cccc(C)n1 (stereo unspecified)	-16.6
CC(C)C(=O)N1CCCC(c2ncncc2-c2ccncc2)C1 (stereo unspecified)	13.6
Cc1cc(C)cc(-c2cccc(CC3(C(=O)O)CCOCC3)c2)c1	43.6
O=C(NCCCN1CCOCC1)Nc1cnc2cc(Cl)ccc2c1O	9.66
CC(C)C(=O)N1CCC(c2nc(O)cc(-c3ccncc3)n2)CC1	-15.8

SMILES	cytotoxicity at 70.5 h [%]
Cc1cc(C(=O)N2Cc3ccccc3OC3(CCOCC3)C2)nc(N)n1	-4.81
O=C(c1ccco1)N1CCCC(c2cc(C(F)F)n3ncnc3n2)C1 (stereo unspecified)	-14.3
O=C(c1cncc(Br)c1)N1CCC(O)(Cn2ccc3ccncc32)CC1	-13.2
O=C(O)C1(Cc2cc(-c3cccc(F)c3)no2)CCOCC1	-24
O=C(c1cnco1)N1C[C@@H]2CC[C@H](Oc3ccccc3F)[C@@H]2C1	40.3
O=C(c1ccnnc1)N1C[C@@H]2CC[C@H](Oc3cccc(F)c3)[C@@H]2C1	-0.575
COCCN1C(=O)CO[C@H]2CN(Cc3c[nH]nc3-c3ccccc3)C[C@@H]21	-9.3
COc1ccc(CN2CC[C@H](NC(C)=O)[C@@H](O)CC2)c(OC)c1	-17.2
Cc1noc(C)c1-c1cncc(C2CCCN2Cc2ccncc2)n1 (stereo unspecified)	-16.4
NCCn1nc(C2CCN(Cc3ccc(Cl)c(Cl)c3)C2)c2nccnc21 (stereo unspecified)	-4.77
CNC(=O)C1(CCCc2ccncc2)CCCN1 (stereo unspecified)	-7.77
CN(C)c1cncc(C2CCN(CCO)CC2)n1	-8.74
COc1cc(CN2CC[C@@]3(CCCO3)[C@@H](O)C2)ccc1F	-7.93
CN1CCN(C(=O)c2cncc(CC3CCCN(C)C3)c2)CC1 (stereo unspecified)	24.9
Cc1noc(C)c1-c1cnc(CC2CCN(C(=O)c3cc[nH]n3)C2)cn1 (stereo unspecified)	-12
Cc1cc(C(F)(F)F)c2c(C3CCN(S(=O)(=O)N(C)C)CC3)noc2n1	-9.87
CC(C)(C)C(=O)N1CCCC1c1nc(O)cc(-c2ccccn2)n1 (stereo unspecified)	-8.73
O=C(CC1CCCC1)N1CCCC1c1nc(O)cc(-c2ccccn2)n1 (stereo unspecified)	-1.16
Cc1oc(C(=O)Nc2ccccc2F)cc1S(N)(=O)=O	-10.9
CCN(CC(C)C#N)C(=O)CNc1ccc(F)c(C)c1 (stereo unspecified)	0.826
Cc1cccc(C)c1NC(=O)c1cc(S(N)(=O)=O)c(C)o1	20.8
CCS(=O)(=O)CC(=O)Nc1cc(-c2cccc(F)c2F)n[nH]1	-9.86
O=c1n(CCNc2cccc3ccccc23)nc2ccccn12	4.9
O=C(c1ccoc1)N1CCC(O)(C(F)(F)F)CC1	-12.1

SMILES	cytotoxicity at 70.5 h [%]
CCOCC(=O)N(C)Cc1nc(C(F)(F)F)cs1	20.5
CCN(CC(C)C#N)C(=O)CNc1ccc(C(N)=O)c(C)c1 (stereo unspecified)	-1.05
COc1ccccc1OCCNS(=O)(=O)N1CCOCC1	-11.3
CC(C)c1nn(C)c(Cl)c1CNCCn1cccn1	8.25
CCOc1nnc(CN2CCN(CCOC)CC2)s1	16.4
COCCN1CCN(CC2CCCCO2)CC1 (stereo unspecified)	38.7
COc1ccc(C(C)=O)cc1CN1CCn2cccc2C1C (stereo unspecified)	-6.89
CC(=O)c1cccc(NC(=O)N(CC(F)F)C2CC2)c1	19.6
CCN(CC)S(=O)(=O)c1ccc(CNC(=O)N2CCCCCC2)cc1	-7.35
Cc1cccc(C)c1OCCCN1CCN(CC2CCCO2)CC1 (stereo unspecified)	18.9
COc1ccc(C2(C(=O)NC3CCc4nccn4C3)CCCC2)cc1 (stereo unspecified)	-3
CS(=O)(=O)C1(C(=O)NC2CCc3nccn3C2)CCCC1 (stereo unspecified)	-4.12
Cc1cc(NC(=O)NCc2nccn2C)ccc1OC(C)C	-6.18
Cc1ccc(Br)cc1S(=O)(=O)NCCc1nnc[nH]1	11.5
COc1cc(C(=O)NS(=O)(=O)c2cc(Cl)sc2Cl)ccc1OC(F)F	-5.6
COc1ccc(C(=O)NS(=O)(=O)c2cc(Cl)sc2Cl)cc1OC(F)F	-3.93
COCCCOc1ccc(C(=O)N(C)CCC(C)C)cn1	20.8
Cc1cnn(CCNCc2c(C)nn(C)c2Cl)c1	-4.35
COC(=O)CNC(=O)CCc1cc(Cl)cs1	6.93
COC(=O)CNC(=O)CCc1cc(Br)cs1	-3.56
CCc1nc(CN(C)C(=O)c2ccc(OCCCOC)nc2)cs1	-7.45
CN(Cc1cnn(C)c1)C(=O)C(c1ccccc1)N1CCSCC1 (stereo unspecified)	-9.84
COc1ccc(C(C)NCCC(N)=O)cc1F (stereo unspecified)	1.06
O=C(NCc1nnc2n1CCC2)c1ccc(Br)s1	-5.66

SMILES	cytotoxicity at 70.5 h [%]
COC(=O)c1ccoc1CN(C)CC(=O)NC1CC1	-5.08
COC(=O)c1ccoc1CN(C)CC(=O)NC1CCS(=O)(=O)C1 (stereo unspecified)	3.53
CNC(=O)CN(C)C(=O)c1ccc(-c2nc(C)cs2)cc1	-5.78
CC(NS(N)(=O)=O)c1ccc(OCc2ccc(F)cc2)cc1 (stereo unspecified)	-0.493
COc1ccc(N2CCC(NC(=O)c3sccc3C)CC2)cc1	18.3
CN1CCC(NC(=O)c2cc(Br)cc(Cl)c2O)C1=O (stereo unspecified)	-1.22
CC(C)OCCN1CCC(Nc2ncc(Br)cn2)CC1	-7.14
CNC(=O)c1cc(NC(=O)Nc2cnn(CC(C)C)c2)ccc1F	-4.7
Cc1cccc(COc2ccc(C(C)NC(=O)CNC(N)=O)cc2)c1 (stereo unspecified)	-0.269
O=C(C1CCCOC1)N1CCN(CC(F)(F)F)c2ccccc21 (stereo unspecified)	-1.7
O=C(C1COCCO1)N1CCN(CC(F)(F)F)c2ccccc21 (stereo unspecified)	-1.12
CN1CCC(NC(=O)c2cc(F)cc(Cl)c2O)C1=O (stereo unspecified)	-2.94
COC(=O)CC1CCCCN1CC(=O)NCCc1ccc(F)cc1 (stereo unspecified)	1.06
COC(=O)CC1CCCCN1CC(=O)Nc1ccc(F)cc1Cl (stereo unspecified)	21.6
COC(=O)c1ccoc1CN(C1CC1)C1CCS(=O)(=O)C1 (stereo unspecified)	-0.821
COC(=O)CC1CCCCN1CC(=O)Nc1cc(F)ccc1F (stereo unspecified)	-4.9
CCCS(=O)(=O)NCc1ncc(C)c(OC)c1C	9.44
CC1CN(c2ncnc3sccc23)CCN1c1nccs1 (stereo unspecified)	-0.696
CC1CCN(C(=O)CCN2Cc3ccccc3C[C@H]2C(N)=O)C1 (stereo partly specified)	-6.72
COC(=O)C1CN(Cc2ccn(-c3ccc(F)cc3)n2)CCO1 (stereo unspecified)	5.92
CC(C)(C)c1noc(CCC(=O)N2CCNC(=O)C2)n1	7.96
COc1ccc2c(c1)CCCC2CC(=O)O (stereo unspecified)	-19.3
Cc1cc(C(=O)N2CCNC(=O)C2)c(C)n1CC(F)(F)F	26.8
Cc1cc(CNc2cccc(C(=O)N(C)c3ccccc3)c2)no1	-0.804

SMILES	cytotoxicity at 70.5 h [%]
O=C(Cc1cccs1)NCC1(O)CCSCC1	-3.88
CS(=O)(=O)CCCC(=O)Nc1cc(Cl)c(Cl)cn1	0.966
CS(=O)(=O)CCC(=O)Nc1cc(Cl)c(Cl)cn1	26.6
COCCCC(=O)Nc1cc(Cl)c(Cl)cn1	24.5
O=C(OC1CCC1)c1ncccc1OCC(F)(F)F	15.8
CS(=O)(=O)c1cncnc1C1CCCNC1 (stereo unspecified)	-8.78
Cc1ncsc1C(=O)NCCn1nc(C2CCNC2)c2cccnc21 (stereo unspecified)	-14.3
COCc1ccc(CN2CCC(O)(Cn3ccc4ncccc43)CC2)o1	-8.64
Cc1ccc2c(c1)CN(C(=O)c1ccccc1F)C(CN(C)C)CO2 (stereo unspecified)	-24.7
CC[C@H](N)Cn1nc(-c2cccs2)oc1=O	-26.2
c1cnc2c(c1)cc(C1CCOCC1)n2CCN1CCOCC1	-11.3
COc1ccc(OCc2sc(C3(O)CCCNCC3)nc2C)cc1 (stereo unspecified)	-10.3
NCC(=O)N1CCCC(c2cncc(Nc3ncccn3)n2)C1 (stereo unspecified)	-13.9
CCN1CCN(Cc2ccnc(-c3cccnc3)n2)CC1	-2.52
Cc1ccc(CN(Cc2c[nH]cn2)C2CC(C)(C)NC(C)(C)C2)o1	-9.95
O[C@@]1(c2ccccn2)CC[C@H]2CN(Cc3cccc(Cl)c3Cl)C[C@H]21	-10.2
COc1ccc(CN2C[C@H]3CC[C@](O)(c4ccc(C)cn4)[C@H]3C2)c(F)c1	-0.817
c1cncc(-c2nccc(CN3CCCC3)n2)c1	3.79
Cc1ccc([C@]2(O)CC[C@H]3CN(Cc4cccc(Cl)c4Cl)C[C@H]32)nc1	22.9
CCN(CC)C(=O)c1cc(C2CCCN2C)ccn1 (stereo unspecified)	4.19

Source: ChEMBL document CHEMBL3507680, “University of Dundee, Gates Library screen for HepG2 cell viability”
